Results: US20250325535A1, “IDENTIFICATION OF NOVEL SMALL-MOLECULE INHIBITORS OF SARS-CoV-2 BY CHEMICAL GENETICS” (The University of Hong Kong, priority 2024, published 2025)

How the values were obtained:
Wild Type SARS-CoV-2 = assay: Golden Syrian hamster experiment; format: in vivo
[1] = test system: recombinant WT SARS-CoV-2; assay: microbe, parasite or virus in culture; format: cell-based; conditions: for IC50: Severe acute respiratory syndrome coronavirus 2, recombinant WT virus, read-out: IC50 (plaque formation assay)
SARS-CoV = format: cell-based
Caco-2 cells = format: in vitro ADME
Experimental: Caco-2 cells are seeded onto 0.4 μm pore polycarbonate membranes (PC) in 96-well Corning Insert plates at a density of 3.5×10^4 cells/cm2.HBSS with 10.0 mM HEPES at pH 7.40±0.05 as the transport buffer. The compound is subjected to bidirectional testing in triplicate at 2.00 μM. The plate is incubated in a CO2 incubator with 5% CO2 at 37.0° C. and saturated humidity for two hours without shaking. All samples are centrifuged at 3220 g for 10 minutes after being combined with acetonitrile containing internal standard. Using the peak area ratio of the analyte/internal standard, LC-MS/MS techniques are used to quantify the concentrations of the compound in the beginning solution, donor solution, and recipient solution. Following transportation, lucifer yellow rejection assay is applied to determine the Caco-2 cell monolayer integrity.
For data analysis, Permeability (Papp), efflux ratio and Percent recovery are calculated using the following equations: […]

MERS-CoV = format: cell-based
[2] = format: in vitro ADME, CD-1 mouse or human; conditions: microsomes
Experimental: Mouse and Human Liver Microsomes are respectively provided by RILD and coming. They are collected from CD-1 mouse or human and prepared in 100 mM potassium phosphate buffer. […] Aliquots are sampled at 0, 5, 15, 30, 45, and 60 min for LC-MS/MS analysis.

VeroE6 cells = assay: in vitro; format: cell-based; conditions: African green monkey, 72 h, 100 μM
Experimental: (§1) FIG. 9. MTT cytotoxicity assays of SMART™ finalized hits compounds on VeroE6 cells. VeroE6 cells are treated with compounds of interest diluted from 100 μM to 0.78 μM in a 2-fold interval and incubate for 72 hours.
(§2) Briefly, cells are seeded onto a 96-well plate at a density of 20,000 cells per well one day before treatment. On the following day, compounds of interest are added to the cells in gradient concentrations and incubated at 37° C. with 5% CO2 for either 48 or 96 hours. After medium removal, 100 μL of 1×MTT solution in plain DMEM is added to the cells and incubated at 37° C. with 5% CO2 for 3-4 hours. Then, MTT lysis buffer (10% SDS/10 mM HCl) is added to the cells and incubated at room temperature for 3-4 hours. Cell viability is measured in absorbance (OD595) using a plate reader (Glomax, Promega).

in vitro = format: cell-based; conditions: African green monkey
Experimental: as §1, §2

[3] = test system: 44 selected host targets including 24 GPCRs, 8 ion channels, 7 enzymes, 3 monoamine transporters, and 2 nuclear hormone receptors; conditions: 10 μM
[4] = Balb/c mouse, single intraperitoneal 5 mg/kg
HCoV-229E = format: cell-based

Row | Compound | viral yield reduction in lung and nasal turbinate vs control group (Wild Type SARS-CoV-2; 1 mg/kg IP at 12-hour intervals, day 3) | IC50 [1] | reduction of SARS-CoV viral load (SARS-CoV) | permeability (Caco-2 cells) | reduction in normalized expression of N gene in cell lysate (MERS-CoV) | metabolic stability [2] | cell viability in MTT assay (VeroE6 cells) | CC50 at 72 h (in vitro) | off-target effects on host proteins [3] | Cmax [4] | viral RNA reduction in supernatant (HCoV-229E) | protection (viral yield reduction) in animal lungs (Wild Type SARS-CoV-2; in vivo) | inhibition of virus replication ([1]; WT virus) | protection (viral yield reduction) in animal lungs (Wild Type SARS-CoV-2; Nirmatrelvir 200 mg/kg IP, Pelitinib oral 10 mg/kg, 12-hour intervals)
1 | Cc1ccc(C2C3=C(CC(c4ccccc4)CC3=O)NC3=C2C(=O)c2ccccc23)cc1 (stereo not shown) [Compound 172, 10-(4-methylphenyl)-7-phenyl-6,7,8,10-tetrahydro-5H-indeno[1,2-b]quinoline-9,11-dione] | 1 log 10 | 3880 nM | 1 log 10 | moderate | > 5 log10 | moderate | over 90% | > 100000 nM | no significant off-target effects | 6.89 µM | more than 3 log 10 | – | – | –
2 | CCOc1cc2ncc(C#N)c(Nc3ccc(F)c(Cl)c3)c2cc1NC(=O)/C=C/CN(C)C [Pelitinib] | – | 1620 nM | – | – | – | – | – | – | – | – | – | marginal | dose-dependent inhibition of WT virus replication | –
3 | CC(C)(C)[C@H](NC(=O)C(F)(F)F)C(=O)N1C[C@H]2[C@@H]([C@H]1C(=O)N[C@H](C#N)C[C@@H]1CCNC1=O)C2(C)C [Nirmatrelvir] | – | 18.4 nM | – | – | – | – | – | – | – | – | – | – | – | > 4 log 10
